Source: ChEMBL document CHEMBL4257449, “New N-(2-phenyl-4-oxo-1,3-thiazolidin-3-yl)-1,2-benzothiazole-3-carboxamides and acetamides as antimicrobial agents” (2017)
Values after ≈ are worked out from the molar mass of the structure shown.

Experiments:
[1] = test system: Penicillium ochrochloron; assay: Antifungal activity against Penicillium ochrochloron ATCC 9112 after 72 hrs by serial dilution method; type: functional; details: ATCC 9112, 72 h
[2] = test system: Bacillus cereus; assay: Antibacterial activity against Bacillus cereus after 24 hrs by microdilution method; type: functional
[3] = test system: Bacillus cereus; assay: Bactericidal activity against Bacillus cereus incubated for 24 hrs followed by serial sub-cultivation and measured after 24 hrs by microdilution method; type: functional
[4] = test system: Micrococcus flavus; assay: Antibacterial activity against Micrococcus flavus ATCC 10240 after 24 hrs by microdilution method; type: functional; details: ATCC 10240, 24 h
[5] = test system: Micrococcus flavus; assay: Bactericidal activity against Micrococcus flavus ATCC 10240 incubated for 24 hrs followed by serial sub-cultivation and measured after 24 hrs by microdilution method; type: functional
[6] = test system: Staphylococcus aureus; assay: Antibacterial activity against Staphylococcus aureus ATCC 6538 after 24 hrs by microdilution method; type: functional; details: ATCC 6538, 24 h
[7] = test system: Staphylococcus aureus; assay: Bactericidal activity against Staphylococcus aureus ATCC 6538 incubated for 24 hrs followed by serial sub-cultivation and measured after 24 hrs by microdilution method; type: functional
[8] = test system: Listeria monocytogenes; assay: Antibacterial activity against Listeria monocytogenes NCTC 7973 after 24 hrs by microdilution method; type: functional; details: NCTC 7973, 24 h
[9] = test system: Listeria monocytogenes; assay: Bactericidal activity against Listeria monocytogenes NCTC 7973 incubated for 24 hrs followed by serial sub-cultivation and measured after 24 hrs by microdilution method; type: functional
[10] = test system: Escherichia coli; assay: Antibacterial activity against Escherichia coli ATCC 35210 after 24 hrs by microdilution method; type: functional; details: ATCC 35210, 24 h
[11] = test system: Escherichia coli; assay: Bactericidal activity against Escherichia coli ATCC 35210 incubated for 24 hrs followed by serial sub-cultivation and measured after 24 hrs by microdilution method; type: functional
[12] = test system: Enterobacter cloacae; assay: Antibacterial activity against Enterobacter cloacae after 24 hrs by microdilution method; type: functional
[13] = test system: Enterobacter cloacae; assay: Bactericidal activity against Enterobacter cloacae incubated for 24 hrs followed by serial sub-cultivation and measured after 24 hrs by microdilution method; type: functional
[14] = test system: Pseudomonas aeruginosa; assay: Antibacterial activity against Pseudomonas aeruginosa ATCC 27853 after 24 hrs by microdilution method; type: functional; details: ATCC 27853, 24 h
[15] = test system: Pseudomonas aeruginosa; assay: Bactericidal activity against Pseudomonas aeruginosa ATCC 27853 incubated for 24 hrs followed by serial sub-cultivation and measured after 24 hrs by microdilution method; type: functional
[16] = test system: Salmonella typhimurium; assay: Antibacterial activity against Salmonella typhimurium ATCC 13311 after 24 hrs by microdilution method; type: functional, Salmonella enterica subsp. enterica serovar Typhimurium; details: Salmonella enterica, ATCC 13311, 24 h
[17] = test system: Salmonella typhimurium; assay: Bactericidal activity against Salmonella typhimurium ATCC 13311 incubated for 24 hrs followed by serial sub-cultivation and measured after 24 hrs by microdilution method; type: functional, Salmonella enterica subsp. enterica serovar Typhimurium
[18] = test system: Aspergillus versicolor; assay: Antifungal activity against Aspergillus versicolor ATCC 11730 after 72 hrs by serial dilution method; type: functional; details: ATCC 11730, 72 h
[19] = test system: Aspergillus fumigatus; assay: Antifungal activity against Aspergillus fumigatus after 72 hrs by serial dilution method; type: functional
[20] = test system: Aspergillus fumigatus; assay: Fungicidal activity against Aspergillus fumigatus incubated for 72 hrs followed by serial sub-cultivation for 72 hrs and measured after 72 hrs by serial dilution method; type: functional
[21] = test system: Aspergillus versicolor; assay: Fungicidal activity against Aspergillus versicolor ATCC 11730 incubated for 72 hrs followed by serial sub-cultivation for 72 hrs and measured after 72 hrs by serial dilution method; type: functional
[22] = test system: Aspergillus ochraceus; assay: Antifungal activity against Aspergillus ochraceus ATCC 12066 after 72 hrs by serial dilution method; type: functional; details: ATCC 12066, 72 h
[23] = test system: Aspergillus ochraceus; assay: Fungicidal activity against Aspergillus ochraceus ATCC 12066 incubated for 72 hrs followed by serial sub-cultivation for 72 hrs and measured after 72 hrs by serial dilution method; type: functional
[24] = test system: Aspergillus niger; assay: Antifungal activity against Aspergillus niger ATCC 6275 after 72 hrs by serial dilution method; type: functional; details: ATCC 6275, 72 h
[25] = test system: Aspergillus niger; assay: Fungicidal activity against Aspergillus niger ATCC 6275 incubated for 72 hrs followed by serial sub-cultivation for 72 hrs and measured after 72 hrs by serial dilution method; type: functional
[26] = test system: Trichoderma viride; assay: Antifungal activity against Trichoderma viride IAM 5061 after 72 hrs by serial dilution method; type: functional; details: IAM 5061, 72 h
[27] = test system: Trichoderma viride; assay: Fungicidal activity against Trichoderma viride IAM 5061 incubated for 72 hrs followed by serial sub-cultivation for 72 hrs and measured after 72 hrs by serial dilution method; type: functional
[28] = test system: Talaromyces funiculosus; assay: Antifungal activity against Penicillium funiculosum ATCC 36839 after 72 hrs by serial dilution method; type: functional; details: ATCC 36839, 72 h
[29] = test system: Talaromyces funiculosus; assay: Fungicidal activity against Penicillium funiculosum ATCC 36839 incubated for 72 hrs followed by serial sub-cultivation for 72 hrs and measured after 72 hrs by serial dilution method; type: functional
[30] = test system: Penicillium ochrochloron; assay: Fungicidal activity against Penicillium ochrochloron ATCC 9112 incubated for 72 hrs followed by serial sub-cultivation for 72 hrs and measured after 72 hrs by serial dilution method; type: functional
[31] = test system: Candida albicans; assay: Antifungal activity against Candida albicans after 72 hrs by serial dilution method; type: functional
[32] = test system: Candida albicans; assay: Fungicidal activity against Candida albicans incubated for 72 hrs followed by serial sub-cultivation for 72 hrs and measured after 72 hrs by serial dilution method; type: functional

Compound	MIC [1]	MIC [2]	MBC99.5 [3]	MIC [4]	MBC99.5 [5]	MIC [6]	MBC99.5 [7]	MIC [8]	MBC99.5 [9]	MIC [10]	MBC99.5 [11]	MIC [12]	MBC99.5 [13]	MIC [14]	MBC99.5 [15]	MIC [16]	MBC99.5 [17]	MIC [18]	MIC [19]	MFC99.5 [20]	further results
O=C(NN1C(=O)CSC1c1c(F)cccc1Cl)c1nsc2ccccc12 (stereo unspecified)	368 µM (≈ 150 µg/mL)	196 µM (≈ 79.9 µg/mL)	36.8 ×10⁻² umol/ml	270 µM (≈ 110 µg/mL)	36.8 ×10⁻² umol/ml	196 µM (≈ 79.9 µg/mL)	36.8 ×10⁻² umol/ml	270 µM (≈ 110 µg/mL)	36.8 ×10⁻² umol/ml	270 µM (≈ 110 µg/mL)	36.8 ×10⁻² umol/ml	368 µM (≈ 150 µg/mL)	73.5 ×10⁻² umol/ml	196 µM (≈ 79.9 µg/mL)	36.8 ×10⁻² umol/ml	196 µM (≈ 79.9 µg/mL)	36.8 ×10⁻² umol/ml	184 µM (≈ 75 µg/mL)	368 µM (≈ 150 µg/mL)	73.5 ×10⁻² umol/ml	MFC99.5 [21]: 73.5 ×10⁻² umol/ml; MIC [22]: 368 µM (≈ 150 µg/mL); MFC99.5 [23]: 73.5 ×10⁻² umol/ml; MIC [24]: 368 µM (≈ 150 µg/mL); MFC99.5 [25]: 73.5 ×10⁻² umol/ml; MIC [26]: 138 µM (≈ 56.3 µg/mL); MFC99.5 [27]: 18.4 ×10⁻² umol/ml; MIC [28]: 368 µM (≈ 150 µg/mL); MFC99.5 [29]: 73.5 ×10⁻² umol/ml; MFC99.5 [30]: 85.8 ×10⁻² umol/ml; MIC [31]: 735 µM (≈ 300 µg/mL); MFC99.5 [32]: 85.8 ×10⁻² umol/ml
O=C(N/N=C/c1c(F)cccc1Cl)c1nsc2ccccc12	60 µM (≈ 20 µg/mL)	120 µM (≈ 40.1 µg/mL)	24 ×10⁻² umol/ml	120 µM (≈ 40.1 µg/mL)	24 ×10⁻² umol/ml	60 µM (≈ 20 µg/mL)	12 ×10⁻² umol/ml	240 µM (≈ 80.1 µg/mL)	48 ×10⁻² umol/ml	120 µM (≈ 40.1 µg/mL)	24 ×10⁻² umol/ml	60 µM (≈ 20 µg/mL)	12 ×10⁻² umol/ml	240 µM (≈ 80.1 µg/mL)	48 ×10⁻² umol/ml	60 µM (≈ 20 µg/mL)	12 ×10⁻² umol/ml	60 µM (≈ 20 µg/mL)	240 µM (≈ 80.1 µg/mL)	30 ×10⁻² umol/ml	MFC99.5 [21]: 12 ×10⁻² umol/ml; MIC [22]: 60 µM (≈ 20 µg/mL); MFC99.5 [23]: 12 ×10⁻² umol/ml; MIC [24]: 60 µM (≈ 20 µg/mL); MFC99.5 [25]: 12 ×10⁻² umol/ml; MIC [26]: 240 µM (≈ 80.1 µg/mL); MFC99.5 [27]: 48 ×10⁻² umol/ml; MIC [28]: 30 µM (≈ 10 µg/mL); MFC99.5 [29]: 6 ×10⁻² umol/ml; MFC99.5 [30]: 12 ×10⁻² umol/ml; MIC [31]: 240 µM (≈ 80.1 µg/mL); MFC99.5 [32]: 30 ×10⁻² umol/ml
O=C(NN1C(=O)CSC1c1ccccc1Cl)c1nsc2ccccc12 (stereo unspecified)	384 µM (≈ 150 µg/mL)	154 µM (≈ 60 µg/mL)	38.4 ×10⁻² umol/ml	384 µM (≈ 150 µg/mL)	76.8 ×10⁻² umol/ml	102 µM (≈ 39.8 µg/mL)	38.4 ×10⁻² umol/ml	589 µM (≈ 230 µg/mL)	76.8 ×10⁻² umol/ml	282 µM (≈ 110 µg/mL)	38.4 ×10⁻² umol/ml	205 µM (≈ 79.9 µg/mL)	38.4 ×10⁻² umol/ml	282 µM (≈ 110 µg/mL)	38.4 ×10⁻² umol/ml	205 µM (≈ 79.9 µg/mL)	38.4 ×10⁻² umol/ml	25.6 µM (≈ 9.98 µg/mL)	102 µM (≈ 40 µg/mL)	20.5 ×10⁻² umol/ml	MFC99.5 [21]: 5.1 ×10⁻² umol/ml; MIC [22]: 102 µM (≈ 39.8 µg/mL); MFC99.5 [23]: 20.5 ×10⁻² umol/ml; MIC [24]: 102 µM (≈ 39.8 µg/mL); MFC99.5 [25]: 20.5 ×10⁻² umol/ml; MIC [26]: 102 µM (≈ 39.8 µg/mL); MFC99.5 [27]: 20.5 ×10⁻² umol/ml; MIC [28]: 205 µM (≈ 79.9 µg/mL); MFC99.5 [29]: 38.4 ×10⁻² umol/ml; MFC99.5 [30]: 76.8 ×10⁻² umol/ml; MIC [31]: 384 µM (≈ 150 µg/mL); MFC99.5 [32]: 76.8 ×10⁻² umol/ml
